Experimental findings from US20230399312A1, “SUBSTITUTED PYRIMIDINES AND METHODS OF USE” (THERAVANCE BIOPHARMA R&D IP, LLC, priority 2020, published 2023) are described below.

Some results are limits rather than exact numbers.

The target in assay [1] is T1, recombinant human ALK5 (TGF-βR1) protein (Homo sapiens, UniProt P36897).
T1 construct: purchased Life Technologies PR9075A
T1 sequence (P36897 34-503): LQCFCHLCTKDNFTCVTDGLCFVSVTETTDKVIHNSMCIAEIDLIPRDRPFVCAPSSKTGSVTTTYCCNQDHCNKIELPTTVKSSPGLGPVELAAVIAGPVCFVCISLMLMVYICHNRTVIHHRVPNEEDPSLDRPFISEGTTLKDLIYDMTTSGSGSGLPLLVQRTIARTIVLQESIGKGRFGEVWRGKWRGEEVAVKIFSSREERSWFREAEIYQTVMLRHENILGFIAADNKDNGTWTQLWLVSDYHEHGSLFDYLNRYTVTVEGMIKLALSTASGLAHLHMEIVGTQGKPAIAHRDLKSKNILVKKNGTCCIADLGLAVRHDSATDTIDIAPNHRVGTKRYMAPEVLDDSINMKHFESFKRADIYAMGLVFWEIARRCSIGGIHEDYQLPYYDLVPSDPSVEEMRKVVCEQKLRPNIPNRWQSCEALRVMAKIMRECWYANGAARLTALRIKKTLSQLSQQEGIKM
As to the kind of experiment: Biochemical ALK5 (TGF-βR1) assay to measure pKi (LANCE Ultra ULight kinase assay). Conditions: apparent pKi, converted from pIC50 by Cheng-Prusoff. Put shortly: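 Enzyme preincubated with compound for 60 min at room temperature, then reacted with ATP (125 μM as 5× stock) for 60 min at 37 °C. Stopped with EDTA plus Eu-anti-phospho-Topoisomerase 2-alpha (Thr1342) antibody and read by TR-FRET at 665 nm. pIC50 from a 4-parameter fit, converted to pKi by Cheng-Prusoff.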
For orientation: Time-resolved FRET reads energy transfer from a long-lived donor to a nearby acceptor.

Assay [2] concerns TGF-β-stimulated SMAD3 phosphorylation in BEAS-2B cells. The assay can be described thus: Cellular ALK5 potency assay, inhibition of TGF-β stimulated pSMAD3 formation in BEAS-2B cells. Conditions: Homo sapiens, pSMAD3, TGF-β 10 ng/mL, read-out: BEAS2B pIC50 (converted). Type of assay: cell-based. Put shortly: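 BEAS-2B cells, HBSS/25 mM HEPES/1% BSA buffer; cpd 1 h, 37 °C; TGF-β 10 ng/mL final, 30 min; lysis, AlphaLISA pSMAD3 read next day. pIC50 vs stimulated no-compound baseline.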

With `Cc1cccc(-c2nccc(Nc3ccnc(Nc4ccc(Cl)c(CN5C[C@@H](C)N[C@@H](C)C5)c4)n3)n2)n1` [Compound 381, N2-[4-chloro-3-[[rac-(3R,5S)-3,5-dimethylpiperazin-1-yl]methyl]phenyl]-N4-[2-(6-methyl-2-pyridyl)pyrimidin-4-yl]pyrimidine-2,4-diamine], in assay [1], the Ki was 0.0398 to 0.316 nM. Besides, in assay [2], the IC50 is 25.1 to 158 nM.
On to `Cc1cccc(-c2nccc(Nc3ccnc(Nc4ccc(CN5CCCC(C(=O)OC6CCNCC6)C5)cc4)n3)n2)n1` (stereo not shown) [Compound 383, 4-piperidyl 1-[[4-[[4-[[2-(6-methyl-2-pyridyl)pyrimidin-4-yl]amino]pyrimidin-2-yl]amino]phenyl]methyl] piperidine-3-carboxylate], for which the Ki in assay [1] was 0.0398 to 0.316 nM. The IC50 in assay [2] is 25.1 to 158 nM.
In the case of `Cc1cccc(-c2nccc(Nc3ccnc(Nc4ccc(F)c(CN5C6CCC5CNC6)c4)n3)n2)n1` [Compound 384, N2-[3-(3,8-diazabicyclo[3.2.1]octan-8-ylmethyl)-4-fluoro-phenyl]-N4-[2-(6-methyl-2-pyridyl)pyrimidin-4-yl]pyrimidine-2,4-diamine], in assay [1], the Ki was 0.0398 to 0.316 nM. Further, in assay [2], the IC50 is 25.1 to 158 nM.
Regarding `Cc1cccc(-c2nccc(Nc3ccnc(Nc4cccc(NC(=O)CC5CNC5)c4)n3)n2)n1` [Compound 385, 2-(azetidin-3-yl)-N-[3-[[4-[[2-(6-methyl-2-pyridyl)pyrimidin-4-yl]amino]pyrimidin-2-yl]amino]phenyl]acetamide], the Ki in assay [1] is ≤ 0.0316 nM. Further, in assay [2], the IC50 was 25.1 to 158 nM.
In the case of `Cc1cccc(-c2nccc(Nc3ccnc(Nc4csc(C(=O)O)c4)n3)n2)n1` [Compound 386, 4-[[4-[[2-(6-methyl-2-pyridyl)pyrimidin-4-yl]amino]pyrimidin-2-yl]amino]thiophene-2-carboxylic acid], in assay [1], the Ki was 0.398 to 3.16 nM. In addition, the IC50 in assay [2] was 1580 to 10000 nM.
In the case of `Cc1cccc(-c2nccc(Nc3ccnc(Nc4ccc(C(=O)NC5CNC5)cc4)n3)n2)n1` [Compound 387, N-(azetidin-3-yl)-4-[[4-[[2-(6-methyl-2-pyridyl)pyrimidin-4-yl]amino]pyrimidin-2-yl]amino]benzamide], the Ki in assay [1] was 0.0398 to 0.316 nM. Besides, in assay [2], the IC50 is ≤ 20 nM.
Regarding `Cc1cccc(-c2nccc(Nc3ccnc(Nc4ccc(CO)cc4)n3)n2)n1` [Compound 388, [4-[[4-[[2-(6-methyl-2-pyridyl)pyrimidin-4-yl]amino]pyrimidin-2-yl]amino]phenyl]methanol], in assay [1], the Ki was 0.398 to 3.16 nM. The IC50 in assay [2] was ≤ 20 nM.
In the case of `Cc1cccc(-c2nccc(Nc3ccnc(Nc4cc(C(=O)N5CCNCC5)cs4)n3)n2)n1` [Compound 389, [5-[[4-[[2-(6-methyl-2-pyridyl)pyrimidin-4-yl]amino]pyrimidin-2-yl]amino]-3-thienyl]-piperazin-1-yl-methanone], the Ki in assay [1] was 0.0398 to 0.316 nM. Also, in assay [2], the IC50 is 25.1 to 158 nM.
For `Cc1cccc(-c2nccc(Nc3ccnc(Nc4cnn(CCC5CCNCC5)c4)n3)n2)n1` [Compound 390, N4-[2-(6-methyl-2-pyridyl)pyrimidin-4-yl]-N2-[1-[2-(4-piperidyl)ethyl]pyrazol-4-yl]pyrimidine-2,4-diamine], the Ki in assay [1] is 0.0398 to 0.316 nM. Moreover, the IC50 in assay [2] was 200 to 1260 nM.
Consider `Cc1cccc(-c2nccc(Nc3ccnc(Nc4nc(CN5C[C@@H](C)N[C@@H](C)C5)cs4)n3)n2)n1` [Compound 391, N4-[2-(6-methyl-2-pyridyl)pyrimidin-4-yl]-N2-[4-[[rac-(3R,5S)-3,5-dimethylpiperazin-1-yl]methyl]thiazol-2-yl]pyrimidine-2,4-diamine], for which the Ki in assay [1] is 0.398 to 3.16 nM. Besides, in assay [2], the IC50 was 25.1 to 158 nM.
On the same counts, the results for `Cc1cccc(-c2nccc(Nc3ccnc(Nc4ccc(CN5CC(OCCO)C5)cc4)n3)n2)n1` [Compound 392, 2-[1-[[4-[[4-[[2-(6-methyl-2-pyridyl)pyrimidin-4-yl]amino]pyrimidin-2-yl]amino]phenyl]methyl]azetidin-3-yl]oxyethanol] are 0.0398 to 0.316 nM and 25.1 to 158 nM.
As for `Cc1cccc(-c2nccc(Nc3ccnc(Nc4ccc(N5CCC(N(C)CC(C)C)CC5)cc4)n3)n2)n1` [Compound 393, N2-[4-[4-[isobutyl(methyl)amino]-1-piperidyl]phenyl]-N4-[2-(6-methyl-2-pyridyl)pyrimidin-4-yl]pyrimidine-2,4-diamine], the Ki in assay [1] was 0.0398 to 0.316 nM. The IC50 in assay [2] is 25.1 to 158 nM.
With `Cc1cccc(-c2nccc(Nc3ccnc(Nc4ccc(N5CCC(N(C)C)CC5)cc4)n3)n2)n1` [Compound 394, N2-[4-[4-(dimethylamino)-1-piperidyl]phenyl]-N4-[2-(6-methyl-2-pyridyl)pyrimidin-4-yl]pyrimidine-2,4-diamine], the Ki in assay [1] was 0.0398 to 0.316 nM. For the same compound, the IC50 in assay [2] is 200 to 1260 nM.
As for `Cc1cccc(-c2nccc(Nc3ccnc(Nc4ccc(CN5CC6CCC(C5)O6)cc4)n3)n2)n1` [Compound 395, N4-[2-(6-methyl-2-pyridyl)pyrimidin-4-yl]-N2-[4-(8-oxa-3-azabicyclo[3.2.1]octan-3-ylmethyl)phenyl]pyrimidine-2,4-diamine], the Ki in assay [1] is 0.0398 to 0.316 nM. Moreover, the IC50 in assay [2] was 25.1 to 158 nM.
On the same counts, the results for `Cc1cccc(-c2nccc(Nc3ccnc(Nc4cccc(C(=O)N5CCN(C)CC5)c4)n3)n2)n1` [Compound 396, (4-methylpiperazin-1-yl)-[3-[[4-[[2-(6-methyl-2-pyridyl)pyrimidin-4-yl]amino]pyrimidin-2-yl]amino]phenyl]methanone] are 0.398 to 3.16 nM and 25.1 to 158 nM.
`Cc1cccc(-c2nccc(Nc3ccnc(Nc4ccc(N5CCC(N6CCOCC6)CC5)cc4)n3)n2)n1` [Compound 397, N4-[2-(6-methyl-2-pyridyl)pyrimidin-4-yl]-N2-[4-(4-morpholino-1-piperidyl)phenyl]pyrimidine-2,4-diamine]: in assay [1], the Ki is 0.0398 to 0.316 nM. Moreover, the IC50 in assay [2] is 25.1 to 158 nM.
Take `Fc1ccc(Cl)cc1-c1nccc(Nc2ccnc(Nc3ccc(N4CCNCC4)cc3)n2)n1` [Compound 398, N4-[2-(5-chloro-2-fluoro-phenyl)pyrimidin-4-yl]-N2-(4-piperazin-1-ylphenyl)pyrimidine-2,4-diamine]: in assay [1], the Ki was 0.0398 to 0.316 nM. Further, in assay [2], the IC50 is 25.1 to 158 nM.
In the case of `Fc1ccccc1-c1nccc(Nc2ccnc(Nc3ccc(N4CCOCC4)cc3)n2)n1` [Compound 399, N4-[2-(2-fluorophenyl)pyrimidin-4-yl]-N2-(4-morpholinophenyl)pyrimidine-2,4-diamine], in assay [1], the Ki is 3.98 to 31.6 nM. In assay [2], the IC50 is 25.1 to 158 nM.
Consider `Cc1cccc(-c2nccc(Nc3ccnc(Nc4ccc(CN5CCC[C@@H](C(=O)OCC6CNC6)C5)cc4)n3)n2)n1` [Compound 400, azetidin-3-ylmethyl (R)-1-(4-((4-((2-(6-methylpyridin-2-yl)pyrimidin-4-yl)amino)pyrimidin-2-yl)amino)benzyl)piperidine-3-carboxylate], for which the Ki in assay [1] was 0.0398 to 0.316 nM. In addition, the IC50 in assay [2] is 25.1 to 158 nM.
Consider `COCCc1ccc(Nc2nccc(Nc3ccnc(-c4cccc(C)n4)n3)n2)cc1` [Compound 401, N2-[4-(2-methoxyethyl)phenyl]-N4-[2-(6-methyl-2-pyridyl)pyrimidin-4-yl]pyrimidine-2,4-diamine], for which the Ki in assay [1] is 0.398 to 3.16 nM. The IC50 in assay [2] is 25.1 to 158 nM.
